Data reported in PubChem BioAssay AID330 (DTP/NCI, 2004).
“And” between values parts separate entries of the source, which are not always exact repeats. Identical values can stand only once. Inconclusive results and toxic doses are left out. The calls were made as follows: active = survival T/C of 150% or more; inactive = T/C below 125% in these data.

System: P388 leukemia ip, CD2F1 mice, survival T/C
Test: NCI In Vivo Anticancer Drug Screen. Data for tumor model P388 Leukemia (intraperitoneal) in CD2F1 (CDF1) mice
Conditions: endpoint: median survival time, higher = longer survival
How it was run: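 Mice carrying the transplanted tumor received test compound or vehicle. Survival was recorded in each group, and the value is the treated-group measurement divided by that of the vehicle-treated control group.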

[1] = dose: 50.0 mg/kg/injection, schedule: Q01DX005 (ip), vehicle: Klucel (hydroxypropylcellulose) (HPC)
[2] = dose: 100.0 mg/kg/injection, schedule: Q01DX005 (ip), vehicle: Klucel (hydroxypropylcellulose) (HPC)
[3] = dose: 60.0 mg/kg/injection, schedule: Q01DX005 (ip), vehicle: saline with Tween-80
[4] = dose: 25.0 mg/kg/injection, schedule: Q01DX009 (ip), vehicle: saline with Tween-80
[5] = dose: 50.0 mg/kg/injection, schedule: Q01DX005 (ip), vehicle: saline
[6] = dose: 100.0 mg/kg/injection, schedule: Q01DX005 (ip), vehicle: saline
[7] = dose: 60.0 mg/kg/injection, schedule: Q01DX005 (ip), vehicle: Klucel (hydroxypropylcellulose) (HPC)
[8] = dose: 120.0 mg/kg/injection, schedule: Q01DX005 (ip), vehicle: Klucel (hydroxypropylcellulose) (HPC)
[9] = dose: 240.0 mg/kg/injection, schedule: Q01DX005 (ip), vehicle: Klucel (hydroxypropylcellulose) (HPC)
[10] = dose: 120.0 mg/kg/injection, schedule: Q01DX005 (ip), vehicle: saline with Tween-80
[11] = dose: 240.0 mg/kg/injection, schedule: Q01DX005 (ip), vehicle: saline with Tween-80
[12] = dose: 50.0 mg/kg/injection, schedule: Q01DX005 (ip), vehicle: saline with Tween-80
[13] = dose: 100.0 mg/kg/injection, schedule: Q01DX005 (ip), vehicle: saline with Tween-80
[14] = dose: 200.0 mg/kg/injection, schedule: Q01DX005 (ip), vehicle: Klucel (hydroxypropylcellulose) (HPC)
[15] = dose: 200.0 mg/kg/injection, schedule: Q01DX005 (ip), vehicle: saline
[16] = dose: 50.0 mg/kg/injection, schedule: Q01DX009 (ip), vehicle: Klucel (hydroxypropylcellulose) (HPC)

Measured: T/C

CC1(C)NC(=O)N(CCCCCCN2C(=O)NC(C)(C)C2=O)C1=O
inactive: [1] 94 % of control | [2] 102 % of control | dose: 400.0 mg/kg/injection, schedule: Q01DX005 (ip), vehicle: Klucel (hydroxypropylcellulose) (HPC) 90 % of control

CC(=O)OC1CN(C)CC=C1c1ccccc1 (centres undefined)
inactive: dose: 15.0 mg/kg/injection, schedule: Q01DX005 (ip), vehicle: saline with Tween-80 91 % of control | dose: 30.0 mg/kg/injection, schedule: Q01DX005 (ip), vehicle: saline with Tween-80 97 % of control | [3] 100 % of control and 97 % of control

CN(C)c1ccc(N=C2C=CC(=O)C=C2)cc1
inactive: dose: 1.5 mg/kg/injection, schedule: Q01DX009 (ip), vehicle: saline with Tween-80 101 % of control and 104 % of control and 106 % of control | dose: 3.0 mg/kg/injection, schedule: Q01DX009 (ip), vehicle: saline with Tween-80 105 % of control and 106 % of control (2×) | dose: 6.0 mg/kg/injection, schedule: Q01DX009 (ip), vehicle: saline with Tween-80 113 % of control (2×) and 120 % of control | dose: 12.0 mg/kg/injection, schedule: Q01DX009 (ip), vehicle: saline with Tween-80 100 % of control and 103 % of control | [4] 102 % of control

O=C1c2sccc2C2NC12 (centres undefined)
inactive: [5] 91 % of control | [6] 100 % of control

CC1S/C(=N\N=C\c2ccc(Cl)cc2)N=C1c1c(O)c2ccccc2oc1=O (centres undefined)
inactive: [7] 93 % of control | dose: 60.0 mg/kg/injection, schedule: Q02DX002 (ip), vehicle: Klucel (hydroxypropylcellulose) (HPC) 91 % of control | [8] 91 % of control | dose: 120.0 mg/kg/injection, schedule: Q02DX002 (ip), vehicle: Klucel (hydroxypropylcellulose) (HPC) 94 % of control | [9] 86 % of control | dose: 240.0 mg/kg/injection, schedule: Q02DX002 (ip), vehicle: Klucel (hydroxypropylcellulose) (HPC) 94 % of control

CSC(=N\N=C(/C)c1ccc(Br)cc1)/N=C/N(C)C
inactive: [3] 100 % of control | [10] 102 % of control | [11] 102 % of control

CC(=O)OC1C(c2ccc(Cl)cc2)CC2CCC1N2C (centres undefined)
inactive: [12] 103 % of control | [13] 102 % of control

CCOP(=S)(N/N=C(\C)c1ccncc1)OCC
inactive: [1] 112 % of control | [2] 107 % of control | [14] 115 % of control

COc1ccc2c(c1)OCCN(C)C2c1ccccc1 (centres undefined)
inactive: [12] 97 % of control | [13] 99 % of control | dose: 200.0 mg/kg/injection, schedule: Q01DX005 (ip), vehicle: saline with Tween-80 99 % of control

CC(C)CNc1ncnc2c1cnn2C
inactive: [5] 94 % of control | [6] 112 % of control | [15] 115 % of control

Cc1nc2c(cnn2C)c(=O)[nH]1
inactive: [1] 96 % of control | [2] 98 % of control | [14] 97 % of control

NC(=O)C(N)C(F)c1ccccc1 (centres undefined)
inactive: [3] 102 % of control | [10] 95 % of control

O=C1CSC(c2ccc(Cl)c([N+](=O)[O-])c2)N1c1nncs1 (centres undefined)
inactive: [7] 99 % of control | [8] 100 % of control | [9] 97 % of control

OCC1(C2CCCNC2)OCCO1 (centres undefined)
inactive: dose: 25.0 mg/kg/injection, schedule: Q01DX005 (ip), vehicle: saline 100 % of control | [5] 111 % of control and 97 % of control | [6] 107 % of control | [15] 108 % of control

O=CN1CCCc2cc(C(=O)O)ccc21
inactive: dose: 50.0 mg/kg/injection, schedule: Q01DX001 (ip), vehicle: saline sonified 100 % of control | dose: 100.0 mg/kg/injection, schedule: Q01DX001 (ip), vehicle: saline sonified 100 % of control | dose: 200.0 mg/kg/injection, schedule: Q01DX001 (ip), vehicle: saline sonified 105 % of control

CCOc1ccccc1/C=N\NC(=O)C(=O)N/N=C\c1ccccc1OCC
inactive: dose: 1.56 mg/kg/injection, schedule: Q01DX009 (ip), vehicle: Klucel (hydroxypropylcellulose) (HPC) 98 % of control | dose: 3.12 mg/kg/injection, schedule: Q01DX009 (ip), vehicle: Klucel (hydroxypropylcellulose) (HPC) 94 % of control | dose: 6.25 mg/kg/injection, schedule: Q01DX009 (ip), vehicle: Klucel (hydroxypropylcellulose) (HPC) 86 % of control and 91 % of control | [16] 90 % of control | dose: 200.0 mg/kg/injection, schedule: Q01DX009 (ip), vehicle: Klucel (hydroxypropylcellulose) (HPC) 97 % of control

O=C(O)CCOc1cccc(OCCC(=O)O)c1
inactive: [1] 102 % of control | [2] 98 % of control | [14] 99 % of control

CC(C)C(=NN/C=N/S(C)(=O)=O)C(C)C
inactive: dose: 25.0 mg/kg/injection, schedule: Q01DX001 (ip), vehicle: Klucel (hydroxypropylcellulose) (HPC) 92 % of control | dose: 50.0 mg/kg/injection, schedule: Q01DX001 (ip), vehicle: Klucel (hydroxypropylcellulose) (HPC) 112 % of control | dose: 100.0 mg/kg/injection, schedule: Q01DX001 (ip), vehicle: Klucel (hydroxypropylcellulose) (HPC) 97 % of control

CN(C)C1C(=O)C(C(=O)NC[N+]23CCO[B-]2(c2ccc(Cl)cc2)OCC3)=C(O)C2(O)C(=O)C3=C(O)c4c(O)cccc4C(C)(O)C3CC12 (centres undefined)
inactive: dose: 25.0 mg/kg/injection, schedule: Q01DX005 (ip), vehicle: Klucel (hydroxypropylcellulose) (HPC) 111 % of control | [1] 107 % of control and 108 % of control and 110 % of control | [2] 108 % of control (2×) and 114 % of control | [14] 108 % of control and 119 % of control and 120 % of control

CC1=C(C(=O)CC(=O)C(=O)Nc2ccc(C)cc2)Sc2ccccc2N1
inactive: [3] 105 % of control | [10] 108 % of control | [11] 106 % of control

C#CCSc1nc2ccccc2s1
inactive: [16] 98 % of control | dose: 100.0 mg/kg/injection, schedule: Q01DX009 (ip), vehicle: Klucel (hydroxypropylcellulose) (HPC) 109 % of control

COc1ccc(C(N)Cc2ccccc2)cc1 (centres undefined)
inactive: [1] 92 % of control | [2] 100 % of control | [14] 102 % of control

CCCCNc1ncnc2[nH]ncc12
inactive: dose: 12.5 mg/kg/injection, schedule: Q01DX009 (ip), vehicle: saline with Tween-80 100 % of control | dose: 12.5 mg/kg/injection, schedule: Q04DX003 (ip), vehicle: saline with Tween-80 90 % of control | [4] 110 % of control | dose: 25.0 mg/kg/injection, schedule: Q04DX003 (ip), vehicle: saline with Tween-80 95 % of control | dose: 50.0 mg/kg/injection, schedule: Q01DX009 (ip), vehicle: saline with Tween-80 105 % of control | dose: 50.0 mg/kg/injection, schedule: Q04DX003 (ip), vehicle: saline with Tween-80 90 % of control

C=CCc1cc(OC)c(OCC=O)c(OC)c1
inactive: dose: 100.0 mg/kg/injection, schedule: Q04DX002 (ip), vehicle: Klucel (hydroxypropylcellulose) (HPC) 99 % of control | dose: 200.0 mg/kg/injection, schedule: Q04DX002 (ip), vehicle: Klucel (hydroxypropylcellulose) (HPC) 96 % of control
